The subject of data set [1] is L929 immortalised fibroblast cell line. The data set is described as follows: MTT colorimetric toxicity assay in L929 fibroblast cell line. It counts as cell-based. Particulars: L929, 0.3 nM to 1 μM, up to 24 h exposure. Here is the method:
A first assessment of the potential toxicity of the substituted phosphonates was carried out in a non-neuronal cell line, using a tetrazolium salt (MTT) colorimetric assay, based on the method described by Mossman (1983), which gives a reflection of mitochondrial activity and cell integrity. The MTT [3-(4,5-dimethylthiazol-2-yl)-2,5-diphenyltetrazolium bromide] assay is based on the ability of a mitochondrial dehydrogenase enzyme from viable cells to cleave the tetrazolium rings of the pale yellow MTT and form dark blue formazan crystals which cannot cross cell membranes. The result is that healthy cells will accumulate more of the blue formazan crystals. […] They were then incubated for 2 h after addition of MTT (1 mg/ml) and the absorbance was read at 570 nm. […] The toxicity of the reference compound clioquinol (0.3 nM to 1 μM) was assessed under the same conditions, for comparison.
A first assessment of toxicity of the substituted phosphonates was carried out in a non-neuronal cell line, using a tetrazolium salt (MTT) colorimetric assay, based on the method described by Mossman (1983), which gives a reflection of mitochondrial activity and cell integrity (FIGS. 6 and 7). The toxicity of the reference compound clioquinol (0.3 nM to 1 μM) was assessed under the same conditions, for comparison.
In general terms: Tetrazolium assays rely on reduction of a dye to a coloured formazan, in cell work by metabolically active cells.

In data set [2] the test system is amyloid accumulation in H4 cells. The data set is described as follows: H4 cell amyloid accumulation (6E10 antibody, HRP/OPD absorbance). It counts as cell-based, human.
Data set [3] relates to intracellular amyloid in H4 cells. The data set is described as follows: intracellular distribution of amyloid in H4 cells (6E10 immunofluorescence). The data set is classed as cell-based, human. The conditions noted are these: 1 μM, 5 days incubation, single dose.
In another data set the test system is β-amyloid plaques. Further details: species or system APP and APP/Tau transgenic mice. Particulars: mouse, in vivo.
The subject of data set [4] is H4 cells (human neuroblastoma cell line).
Where [5] appears, read: H4 cells, 1 μM, average of 2-3 experiments.

Like-named read-outs stand apart in the source and are kept apart here.

For the molecule `Oc1c(I)cc(Cl)c2cccnc12` [Clioquinol, reference compound], the “toxicity as reflected in cell viability (MTT)” value in data set [1] is reported as “neither clioquinol nor any of the substituted phosphonates screened showed any toxicity”. Further, the “accumulation of amyloid in H4 cells” value in data set [2] (1 μM, 5 days) is on record as “decreases the accumulation of amyloid”. Besides, in data set [2] (setting [5]), the “amyloid reduction (% controls), 5 day repeated doses” value is recorded as 76 % controls and the “amyloid reduction (% controls), 5 day single dose” value came to 64 % controls. The “intracellular amyloid labelling in H4 cells” value in data set [3] is “reduced this intracellular accumulation in some of the cells, but brightly labelled areas could still be found”. In addition, the “amyloid plaque load in brain” value in the data set on β-amyloid plaques was “apparent decreased plaque load, and especially a reduced load of large aggregates”. Besides, in data set [4] (5 days, 1 μM), the “cell survival (% controls), 5 day repeated doses” value was 96 % controls and the “cell survival (% controls), 5 day single dose” value was 99 % controls.

On to `O=P([O-])([O-])Cn1c2ccccc2c2ccccc21.[Na+].[Na+]` [Compound 20, Disodium N-carbazolylmethylphosphonate], for which, in data set [2], the “amyloid reduction (% controls), 5 day repeated doses” value came to 66 % controls and the “amyloid reduction (% controls), 5 day single dose” value turned out to be 11 % controls. Besides, in data set [4], the “cell survival (% controls), 5 day repeated doses” value is on record as 72 % controls; the “cell survival (% controls), 5 day single dose” value is 88 % controls; the “reduction of cell viability” value came to 28%.

Take `CCOP(=O)(COc1ccc(NC(C)=O)cc1)OCC` [Compound 25, Diethyl 4-acetamidophenoxy methylphosphonate]: in data set [2], the “amyloid reduction (% controls), 5 day repeated doses” value stood at 62 % controls and the “amyloid reduction (% controls), 5 day single dose” value came to 24 % controls. In addition, in data set [4], the “cell survival (% controls), 5 day repeated doses” value amounted to 97 % controls and the “cell survival (% controls), 5 day single dose” value is 98 % controls.

In the case of `CCOP(=O)(COc1ccc2c(c1)[nH]c1ccccc12)OCC` [Compound 17, Diethyl-2-carbazolyloxymethylphosphonate], in data set [2], the “amyloid reduction (% controls), 5 day repeated doses” value is 62 % controls and the “amyloid reduction (% controls), 5 day single dose” value amounted to 37 % controls. In data set [4], the “cell survival (% controls), 5 day repeated doses” value is given as 102 % controls and the “cell survival (% controls), 5 day single dose” value came out at 97 % controls.

Regarding `CCOP(=O)(COc1ccccc1-c1nc2ccccc2s1)OCC` [Compound 14, Diethyl 2-(2-benzthiazolyl)phenoxymethylphosphonate], in data set [2], the “amyloid reduction (% controls), 5 day repeated doses” value worked out at 83 % controls and the “amyloid reduction (% controls), 5 day single dose” value turned out to be 100 % controls. Further, in data set [4], the “cell survival (% controls), 5 day repeated doses” value worked out at 110 % controls and the “cell survival (% controls), 5 day single dose” value worked out at 100 % controls.

The values are drawn from patent publication US8513219B2, “Substituted phosphonates and their use in decreasing amyloid aggregates” (Queen Mary & Westfield College, University of London, priority 2007, dated 2013).
